{"source": "patent US12521361B2", "about": "“Use of sodium octanoate in preparation of medicine for improving the efficacy of cardiopulmonary resuscitation and post-resuscitation multiple organ dysfunction” (ZHEJIANG UNIVERSITY, priority 2021, dated 2026)", "assay_type_in_all_cases": "in vivo, domestic healthy male white pigs", "key": {"[1]": {"test_system": "model of cardiac arrest and resuscitation", "experiment": "Cerebral function (NDS) and brain injury biomarkers after resuscitation", "settings": "28.5 mg/kg i.v., P<0.05, FIG. 3", "experimental": "(§1) • 1. Setting model conditions: 8 min of cardiac arrest and 8 min of cardiopulmonary resuscitation. • 2. Cardiac arrest method: inducing ventricular fibrillation by right ventricular electrode discharge, and observing for 8 min without intervention. • 3. […]\n(§2) • 1. Changes in physiological indexes such as heart rate, blood pressure, ETCO2, CBF, rSO2, and body temperature were dynamically monitored throughout the experiment, and the survival outcomes of the animals at 4 h and 24 h were recorded. • 2. During cardiopulmonary resuscitation, the changes in CPP, ETCO2, CBF, and rSO2 were continuously monitored dynamically, and the duration of cardiopulmonary resuscitation, number of defibrillation, dosage of adrenaline, and rate of return of spontaneous circulation of various groups of animals were recorded. • 3. Before modeling and at 1 h, 2 h, and 4 h after resuscitation, the changes in cardiac function such as SV and GEF were periodically detected by using a PiCCO monitor. • 4. […] The blood plasma was frozen and stored in a −80° C. deep hypothermia freezer, and serum levels of myocardial injury biomarker cardiac troponin I (cTnI), brain injury biomarker neuron specific enolase (NSE) and S100B protein (S100B), renal and intestinal injury biomarker creatinine (Cr) and intestinal fatty acid-binding protein (iFABP) were detected by using an enzyme-linked immunosorbent assay at selected time. • 5. […]"}, "[2]": {"test_system": "model of cardiac arrest and resuscitation", "experiment": "Cardiac function (PiCCO) and myocardial injury biomarker after resuscitation", "settings": "28.5 mg/kg i.v., P<0.05, FIG. 2", "experimental": "• 1. All animals started fasting without water deprivation 12 h before experiment. • 2. The experimental animals were firstly intramuscularly injected with midazolam by 0.4-0.5 mg/kg for induced anesthesia, connected to an electrocardiogram monitor, then injected with propofol by 2 mg/kg through ear vein for general anesthesia, and afterwards maintained in an anesthetic state through infusing 4 mg/kg/h via the vein. • 3. Endotracheal intubation, monitoring of partial pressure of end-tidal carbon dioxide (ETCO2), and mechanical ventilation were rapidly carried out, wherein ventilation parameters were an intermittent positive pressure ventilation (IPPV) mode, with oxygen concentration of 21%, tidal volume of 10 ml/kg, and positive end-expiratory pressure of 0 mmHg, and ETCO2 was maintained in a normal physiological range of 35-40 mmHg by adjusting respiratory frequency. • 4. Right femoral artery and vein were exposed by operation, and Swan-Ganz catheters were respectively disposed into thoracic aorta and right atrium, wherein the former was used to monitor aortic blood pressure and collect an arterial blood sample, and the catheter main chamber of the latter was used to monitor right atrial pressure and body temperature and collect a venous blood sample, a catheter side chamber was used to infuse a therapeutic medicine, and calculate the level of coronary perfusion pressure (CPP) according to the difference between decompression diastolic aortic and time-coincident right atrial pressures. • 5. Right external jugular vein was exposed by operation, and an inducing electrode for ventricular fibrillation was disposed into right ventricle to induce ventricular fibrillation later. • 6. Right internal jugular vein and left femoral artery were exposed by operation, a central venous catheter and a thermodilution arterial catheter were respectively disposed therein, and the two were connected to a pulse indication continuous cardiac output (PiCCO) monitor, for monitoring the changes of cardiac function including stroke volume (SV) and global ejection fraction (GEF). • 7. […]"}, "[3]": {"test_system": "model of cardiac arrest and resuscitation", "experiment": "Outcomes of cardiopulmonary resuscitation and cardiac/cerebral perfusion in pig model of cardiac arrest and resuscitation", "experimental": "• 1. All animals started fasting without water deprivation 12 h before experiment. • 2. The experimental animals were firstly intramuscularly injected with midazolam by 0.4-0.5 mg/kg for induced anesthesia, connected to an electrocardiogram monitor, then injected with propofol by 2 mg/kg through ear vein for general anesthesia, and afterwards maintained in an anesthetic state through infusing 4 mg/kg/h via the vein. • 3. Endotracheal intubation, monitoring of partial pressure of end-tidal carbon dioxide (ETCO2), and mechanical ventilation were rapidly carried out, wherein ventilation parameters were an intermittent positive pressure ventilation (IPPV) mode, with oxygen concentration of 21%, tidal volume of 10 ml/kg, and positive end-expiratory pressure of 0 mmHg, and ETCO2 was maintained in a normal physiological range of 35-40 mmHg by adjusting respiratory frequency. • 4. Right femoral artery and vein were exposed by operation, and Swan-Ganz catheters were respectively disposed into thoracic aorta and right atrium, wherein the former was used to monitor aortic blood pressure and collect an arterial blood sample, and the catheter main chamber of the latter was used to monitor right atrial pressure and body temperature and collect a venous blood sample, a catheter side chamber was used to infuse a therapeutic medicine, and calculate the level of coronary perfusion pressure (CPP) according to the difference between decompression diastolic aortic and time-coincident right atrial pressures. • 5. Right external jugular vein was exposed by operation, and an inducing electrode for ventricular fibrillation was disposed into right ventricle to induce ventricular fibrillation later. • 6. Right internal jugular vein and left femoral artery were exposed by operation, a central venous catheter and a thermodilution arterial catheter were respectively disposed therein, and the two were connected to a pulse indication continuous cardiac output (PiCCO) monitor, for monitoring the changes of cardiac function including stroke volume (SV) and global ejection fraction (GEF). • 7. Right carotid artery was exposed by operation, superficial fascia was stripped off, a carotid blood flow sensor was arranged, and then a blood flow velocity ultrasonic recorder was connected to monitor the change of carotid blood flow (CBF) in real time. • 8. The animals' forehead hair was shaved off, to expose forehead skin. The forehead skin was cleaned with alcohol, and attached with a cerebral oxygen monitoring probe, and then a cerebral oxygen monitor was attached to monitor the change of regional cerebral oxygen saturation (rSO2) in real time. • 9. The body temperature of the animals was maintained at a normal temperature of about 38° C. all the time by using a temperature control blanket.\n• 1. Setting model conditions: 8 min of cardiac arrest and 8 min of cardiopulmonary resuscitation. • 2. Cardiac arrest method: inducing ventricular fibrillation by right ventricular electrode discharge, and observing for 8 min without intervention. • 3. Cardiopulmonary resuscitation method: • 1) continuous manual external chest compression; • 2) mechanical ventilation was carried out by using a respirator (parameters were IPPV (intermittent positive pressure ventilation) mode, with oxygen concentration of 100%, tidal volume of 7 ml/kg, respiratory frequency of 10 times/min, and positive end-expiratory pressure of 0 mmHg); • 3) adrenalin: when cardiopulmonary resuscitation was performed for 2 min, adrenalin was given by 20 μg/kg, thereafter, the same was repeated every 4 min; • 4) defibrillation: when cardiopulmonary resuscitation was performed for 8 min, 150 J electrical defibrillation was performed once; and • 5) if spontaneous circulation was not restored, cardiopulmonary resuscitation was immediately restarted for 2 min, followed by one time of defibrillation. This cycle was repeated for 5 times or less until the resuscitation was successful or declared to be failed. • 4. […]"}, "[4]": {"test_system": "model of cardiac arrest and resuscitation", "experiment": "Cell apoptosis in heart, brain, kidney and intestine by TUNEL after resuscitation", "settings": "at 24 h after resuscitation, 28.5 mg/kg i.v., P<0.05, FIG. 5", "experimental": "as §1, §2"}, "[5]": {"test_system": "model of cardiac arrest and resuscitation", "experiment": "Renal and intestinal injury biomarkers after resuscitation", "settings": "28.5 mg/kg i.v., P<0.05, FIG. 4", "experimental": "as §1, §2"}, "[6]": {"settings": "starting 1 h after resuscitation"}, "[7]": {"settings": "during cardiopulmonary resuscitation, almost all time points, 28.5 mg/kg i.v., P<0.05, FIG. 1"}, "[8]": {"settings": "in words, 28.5 mg/kg i.v., P<0.05"}, "[9]": {"settings": "pigs, sodium octanoate 28.5 mg/kg intravenously at start of CPR, n=8, P<0.05 vs CPR group"}, "[10]": {"settings": "pigs, sodium octanoate 28.5 mg/kg intravenously at start of CPR, P<0.05 vs CPR group"}}, "note": "Marks after values point to notes of the source that are not given here.", "data": [{"smiles": "CCCCCCCC(=O)[O-].[Na+]", "note": "[SO, sodium octanoate]", "values": [{"measurement": "Serum level of S100B compared with the CPR group", "setting": "[1]; at 1 h, 2 h, and 24 h after resuscitation", "result": "remarkably reduced"}, {"measurement": "Serum level of NSE (neuron specific enolase) compared with the CPR group", "setting": "[1]; at 4 h and 24 h after resuscitation", "result": "remarkably reduced"}, {"measurement": "NDS (neurological deficit score) compared with the CPR group", "setting": "[1]; at 24 h after resuscitation", "result": "remarkably lower"}, {"measurement": "GEF (global ejection fraction) compared with the CPR group", "setting": "[2]; [6]", "result": "obviously higher"}, {"measurement": "SV (stroke volume) compared with the CPR group", "setting": "[2]; [6]", "result": "obviously higher"}, {"measurement": "Serum level of cTnI (cardiac troponin I) compared with the CPR group", "setting": "[2]; starting 4 h after resuscitation", "result": "markedly lower"}, {"measurement": "CBF (carotid blood flow) compared with the CPR group", "setting": "[3]; [7]", "result": "obviously higher"}, {"measurement": "CPP (coronary perfusion pressure) compared with the CPR group", "setting": "[3]; [7]", "result": "obviously higher"}, {"measurement": "ETCO2 (partial pressure of end-tidal carbon dioxide) compared with the CPR group", "setting": "[3]; [7]", "result": "obviously higher"}, {"measurement": "rSO2 (regional cerebral oxygen saturation) compared with the CPR group", "setting": "[3]; [7]", "result": "obviously higher"}, {"measurement": "Dosage of adrenaline compared with the CPR group", "setting": "[3]; [8]", "result": "decreased"}, {"measurement": "Duration of cardiopulmonary resuscitation compared with the CPR group", "setting": "[3]; [8]", "result": "shortened"}, {"measurement": "Number of defibrillation compared with the CPR group", "setting": "[3]; [8]", "result": "reduced"}, {"measurement": "Rate of return of spontaneous circulation compared with the CPR group", "setting": "[3]; [8]", "result": "increased"}, {"measurement": "Survival rates at 4 h and 24 h post-resuscitation compared with the CPR group", "setting": "[3]; [8]", "result": "increased"}, {"measurement": "Duration of cardiopulmonary resuscitation", "setting": "[3]; pigs, 8 min cardiac arrest, sodium octanoate 28.5 mg/kg intravenously at start of CPR, n=8, P<0.05 vs CPR group", "result": "8.00 ± 0.00", "unit": "min"}, {"measurement": "Dosage of adrenaline", "setting": "[3]; [9]", "result": "1.59 ± 0.08", "unit": "mg"}, {"measurement": "Number of defibrillation", "setting": "[3]; [9]", "result": "1.00 ± 0.00", "unit": "n"}, {"measurement": "4-h survival", "setting": "[3]; [10]", "result": "8/8^#"}, {"measurement": "24-h survival", "setting": "[3]; [10]", "result": "8/8^#"}, {"measurement": "Return of spontaneous circulation", "setting": "[3]; [10]", "result": "8/8^#"}, {"measurement": "Cell apoptosis of various organs (heart, brain, kidney, intestine; TUNEL) compared with the CPR group", "setting": "[4]", "result": "remarkably reduced"}, {"measurement": "Serum levels of Cr (creatinine) compared with the CPR group", "setting": "[5]; at 2 h and 24 h after resuscitation", "result": "remarkably reduced"}, {"measurement": "Serum level of iFABP (intestinal fatty acid-binding protein) compared with the CPR group", "setting": "[5]; at 24 h after resuscitation", "result": "remarkably reduced"}]}]}
